Earlier results in PubChem BioAssay AID1259409 (Chemical Carcinogenesis Research Information System (CCRIS), 2018).
Where “and” joins values, the source holds several entries; their conditions need not be identical. Equal entries are not always repeated.

Test system: rodent chemically induced tumor inhibition, incidence and multiplicity
Test: CCRIS tumor inhibitor studies

## CCc1cccc2c3c([nH]c12)C(CC)(CC(=O)O)OCC3 (centres undefined)
Carcinogen: N-NITROSOBIS(2-HYDROXYPROPYL)AMINE, 53609-64-6, Dose [Inhibitor]: 0, 0.015% IN DIET FOR 8 WK BEGINNING POST CARCINOGEN TREATMENT (STUDY DURATION: 20 WK), Route [Inhibitor]: ORAL, Species: RAT, Strain/Sex: WISTAR/MALE, Target Tissue: Type of Lesion: LUNG: ADENOCARCINOMA, Dose [Carcinogen]: 2,000 PPM IN DRINKING WATER FOR 12 WK, Promoter: NONE
  tumour outcome (control, treated, inhibition, significance): 60%, 46%, 23%, not calculated
Carcinogen: N-NITROSOBIS(2-HYDROXYPROPYL)AMINE, 53609-64-6, Dose [Inhibitor]: 0, 0.015% IN DIET FOR 8 WK BEGINNING POST CARCINOGEN TREATMENT (STUDY DURATION: 20 WK), Route [Inhibitor]: ORAL, Species: RAT, Strain/Sex: WISTAR/MALE, Target Tissue: Type of Lesion: LUNG: SQUAMOUS CELL CARCINOMA, Dose [Carcinogen]: 2,000 PPM IN DRINKING WATER FOR 12 WK, Promoter: NONE
  tumour outcome (control, treated, inhibition, significance): 20%, 0%, 100%, not calculated
Carcinogen: N-NITROSOBIS(2-OXOPROPYL)AMINE [60599-38-4], Dose [Inhibitor]: 10 MG/KG BW ORALLY 3X A WEEK FOR 18 WK (STUDY DURATION: 22 WK), Route [Inhibitor]: ORAL, Species: HAMSTER, Strain/Sex: SYRIAN GOLDEN/FEMALE WITH BILIOENTEROSTOMY, Target Tissue: Type of Lesion: BILE DUCT: ADENOMA, Dose [Carcinogen]: 10 MG/KG BW EVERY 2 WK FOR 18 WK (STUDY DURATION: 22 WK)
  tumour outcome (control, treated, inhibition, significance): 15/17 (88%), 11/18 (61%), 31%, not significant
Carcinogen: N-NITROSOBIS(2-OXOPROPYL)AMINE [60599-38-4], Dose [Inhibitor]: 10 MG/KG BW ORALLY 3X A WEEK FOR 18 WK (STUDY DURATION: 22 WK), Route [Inhibitor]: ORAL, Species: HAMSTER, Strain/Sex: SYRIAN GOLDEN/FEMALE WITH BILIOENTEROSTOMY, Target Tissue: Type of Lesion: BILE DUCT: CARCINOMA, Dose [Carcinogen]: 10 MG/KG BW EVERY 2 WK FOR 18 WK (STUDY DURATION: 22 WK)
  tumour outcome (control, treated, inhibition, significance): 15/17 (88%), 6/18 (33%), 63%, p< 0.01

## CC(=C/C=C/C(C)=C/C=C/C=C(C)/C=C/C=C(\C)C=C=C1C(C)(C)C[C@H](O)C[C@@]1(C)O)/C=C/[C@@]12O[C@]1(C)C[C@@H](O)CC2(C)C
Carcinogen: 7,12-DIMETHYLBENZ[A]ANTHRACENE, 57-97-6, Dose [Inhibitor]: 0, 0.2 UG IN 0.2 ML ACETONE APPLIED TO BUCCAL POUCH 2/WK FOR 2 WK 1 HR PRIOR TO EACH PROMOTER DOSE (STUDY DURATION: 34 W, Route [Inhibitor]: MUCOUS MEMBRANE, Species: HAMSTER, Strain/Sex: SYRIAN/MALE,FEMALE, Target Tissue: Type of Lesion: BUCCAL POUCH: TUMOR, Dose [Carcinogen]: 200 NMOL IN 0.2 ML ACETONE 3/WK FOR 2 WK, Promoter: 12-O-TETRADECANOYLPHORBOL-13-ACETATE, 16561-29-8
  tumour outcome (control, treated, inhibition, significance): 3/6 (50%), 0/6 (0%), 100%, not calculated
Carcinogen: 7,12-DIMETHYLBENZ[A]ANTHRACENE, 57-97-6, Dose [Inhibitor]: 0, 0.2 UG IN 0.2 ML ACETONE APPLIED TO BUCCAL POUCH 3/WK FOR 2 WK 1 HR PRIOR TO EACH CARCINOGEN DOSE (STUDY DURATION: 34, Route [Inhibitor]: MUCOUS MEMBRANE, Species: HAMSTER, Strain/Sex: SYRIAN/MALE,FEMALE, Target Tissue: Type of Lesion: BUCCAL POUCH: TUMOR, Dose [Carcinogen]: 200 NMOL IN 0.2 ML ACETONE 3/WK FOR 2 WK, Promoter: 12-O-TETRADECANOYLPHORBOL-13-ACETATE, 16561-29-8
  tumour outcome (control, treated, inhibition, significance): 3/6 (50%), 0/6 (0%), 100%, not calculated

## CC[C@H]1OC(=O)[C@H](C)[C@@H](O[C@H]2C[C@@](C)(OC)[C@@H](O)[C@H](C)O2)[C@H](C)[C@@H](O[C@@H]2O[C@H](C)C[C@H](N(C)C)[C@H]2O)[C@](C)(OC)C[C@@H](C)C(=O)[C@H](C)[C@@H](O)[C@]1(C)O
Carcinogen: N-NITROSOBIS(2-HYDROXYPROPYL)AMINE, 53609-64-6, Dose [Inhibitor]: 0, 0.02% IN DIET FOR 8 WK BEGINNING POST CARCINOGEN TREATMENT (STUDY DURATION: 20 WK), Route [Inhibitor]: ORAL, Species: RAT, Strain/Sex: WISTAR/MALE, Target Tissue: Type of Lesion: LUNG: ADENOCARCINOMA, Dose [Carcinogen]: 2,000 PPM IN DRINKING WATER FOR 12 WK, Promoter: NONE
  tumour outcome (control, treated, inhibition, significance): 60%, 38%, 37%, not calculated
Carcinogen: N-NITROSOBIS(2-HYDROXYPROPYL)AMINE, 53609-64-6, Dose [Inhibitor]: 0, 0.02% IN DIET FOR 8 WK BEGINNING POST CARCINOGEN TREATMENT (STUDY DURATION: 20 WK), Route [Inhibitor]: ORAL, Species: RAT, Strain/Sex: WISTAR/MALE, Target Tissue: Type of Lesion: LUNG: ADENOMA, Dose [Carcinogen]: 2,000 PPM IN DRINKING WATER FOR 12 WK, Promoter: NONE
  tumour outcome (control, treated, inhibition, significance): 70%, 50%, 29%, not calculated
Carcinogen: N-NITROSOBIS(2-HYDROXYPROPYL)AMINE, 53609-64-6, Dose [Inhibitor]: 0, 0.02% IN DIET FOR 8 WK BEGINNING POST CARCINOGEN TREATMENT (STUDY DURATION: 20 WK), Route [Inhibitor]: ORAL, Species: RAT, Strain/Sex: WISTAR/MALE, Target Tissue: Type of Lesion: LUNG: SQUAMOUS CELL CARCINOMA, Dose [Carcinogen]: 2,000 PPM IN DRINKING WATER FOR 12 WK, Promoter: NONE
  tumour outcome (control, treated, inhibition, significance): 20%, 13%, 35%, not calculated

## CCCCCCCCCCCCCCCCCCCCCC(O)CC(O)CCCCC (centres undefined)
Carcinogen: 7,12-DIMETHYLBENZ[A]ANTHRACENE, 57-97-6, Dose [Inhibitor]: 0, 2 UMOL APPLIED 30 MIN PRIOR TO EACH PROMOTER DOSE 2/WK FOR 20 WK BEGINNING 7 D POST CARCINOGEN DOSE (STUDY DURATION:, Route [Inhibitor]: DERMAL, Species: MOUSE, Strain/Sex: ICR/FEMALE, Target Tissue: Type of Lesion: SKIN: PAPILLOMA, Dose [Carcinogen]: 50 UG IN 100 µL ACETONE ONCE, Promoter: 12-O-TETRADECANOLYPHORBOL-13-ACETATE, 16561-29-8
  tumour outcome (control, treated, inhibition, significance): 93%, 20%, 78%, not significant

## O=C(O)c1ccc(-c2c3nc(c(-c4ccc(C(=O)O)cc4)c4ccc([nH]4)c(-c4ccc(C(=O)O)cc4)c4ccc([nH]4)c(-c4ccc(C(=O)O)cc4)c4nc2C=C4)C=C3)cc1
Carcinogen: 7,12-DIMETHYLBENZ[A]ANTHRACENE [57-97-6], Dose [Inhibitor]: 0, 0.1% IN 0.2 ML DMSO-ACETONE (15:85, V/V) 2X/WK FOR 30 WK 10 MIN PRIOR TO PROMOTER DOSE (STUDY DURATION: 31 WK), Route [Inhibitor]: DERMAL, Species: MOUSE, Strain/Sex: ICR/FEMALE, Target Tissue: Type of Lesion: SKIN: PAPILLOMA, Dose [Carcinogen]: 0.2 UMOL ONCE (STUDY DURATION: 31 WK), Promoter: 12-O-TETRADECANOYLPHORBOL-13-ACETATE [16561-29-8]
  tumour outcome (control, treated, inhibition, significance): 100%, 73%, 27%, not calculated

## CC1=CCC(=O)O1
Carcinogen: BENZO[A]PYRENE, 50-32-8, Dose [Inhibitor]: 0.034 MMOL/G IN DIET FOR 5 WK (STUDY DURATION: 21 WK), Route [Inhibitor]: ORAL, Species: MOUSE, Strain/Sex: ICR/HA/FEMALE, Target Tissue: Type of Lesion: FORESTOMACH: TUMOR, Dose [Carcinogen]: 1 MG IN 0.2 ML CORN OIL, 2/WK FOR 4 WK STARTING ON D 8 OF EXPERIMENT, Promoter: NONE USED
  tumour outcome (control, treated, inhibition, significance): 95%, 42%, 56%, p<0.01 and 95%, 53%, 44%, p<0.01

## O=C(O)/C=C/c1ccccc1
Carcinogen: BENZO[A]PYRENE, 50-32-8, Dose [Inhibitor]: 0.06 MMOL/G OF DIET DAILY STARTING 7 D BEFORE AND CONTINUING THROUGH 3 D AFTER CARCINOGEN TREATMENT FOLLOWED BY OBSERVAT, Route [Inhibitor]: ORAL, Species: MOUSE, Strain/Sex: ICR/FEMALE, Target Tissue: Type of Lesion: FORESTOMACH: NEOPLASM, Dose [Carcinogen]: 1 MG IN 0.2 ML CORN OIL 2/WK FOR 4 WK, Promoter: NONE USED
  tumour outcome (control, treated, inhibition, significance): 97%, 100%, -3%, not significant and 100%, 94%, 6%, not significant

## CCCCCCCCCCCCO
Carcinogen: 4-(METHYLNITROSAMINO)-1-(3-PYRIDYL)-1-BUTANONE, 64091-91-4, Dose [Inhibitor]: 0, 1 UMOL IN 0.1 ML CORN OIL ONCE 2 HR PRIOR TO CARCINOGEN DOSE (STUDY DURATION: 16 WK), Route [Inhibitor]: GAVAGE, Species: MOUSE, Strain/Sex: STRAIN-A/FEMALE, Target Tissue: Type of Lesion: LUNG: ADENOMA, Dose [Carcinogen]: 10 UMOL IN 0.1 ML SALINE ONCE, Promoter: NONE USED
  tumour outcome (control, treated, inhibition, significance): 100%, 100%, 0%, not significant
